Where two headings read alike, the source gives them in different places.
Assays:
[1] = 37 °C, cited from earlier work
[2] = Relaxivity measurements at 1.4 T (MiniSpec mq60, 60 MHz, 37 °C) in water and human plasma; assay type: physicochemical; conditions: 1.41 T, normalized to Gd
Procedure: Relaxivity Measurements at 1.4 T
Relaxivity measurements at 1.41 T were performed using a MiniSpec mq60 spectrometer (Bruker Analytik, Karlsruhe, Germany) operating at a resonance frequency of 60 MHz and a temperature of 37° C. The T1 relaxation times were determined using the standard inversion recovery (IR) method with a fixed relaxation delay of at least 5×T1. The variable inversion time (TI) was calculated automatically by the standard software of the MiniSpec mq60 (8 steps). The T2 measurements were done by using a Carr-Purcell-Meiboom-Gill (CPMG) pulse sequence, applying a relaxation delay of at least 5×T1.
Each relaxivity measurement was performed using three different Gd concentrations (3 concentrations between 0.05 and 2 mM). The T1 and T2 relaxation times of the example compounds 1 to 10 were measured in different media for example in water and human plasma. Human plasma preparation: For each experiment fresh blood was taken from a volunteer using 10 mL citrate-tubes (Sarstedt S-Monovette 02.1067.001, 10 mL, Citrate). The 10 mL citrate-tubes were carefully inverted 10 times to mix blood and anticoagulant and centrifuged for 15 minutes at 1811 g at room temperature (Eppendorf, Centrifuge 5810R).
The relaxivities ri (where i=1, 2) were calculated on the basis of the measured relaxation rates Ri in water and plasma: Ri=Ri(0)+ri[CGd], where Ri(0) represent the relaxation rate of the respective solvent and CGd the concentration of the compound normalized to the Gadolinium. The Gadolinium concentrations of the investigated solutions were verified by Inductively Coupled Plasma Mass Spectrometry (ICP-MS Agilent 7500a, Waldbronn, Germany).

[3] = Dynamic CT diffusion phantom study (dialysis cassette in fetal bovine serum); assay type: physicochemical; conditions: dialysis cassette 20,000 MWCO, 20 mmol Gd/L, CT signal over 30 h
Procedure: The described dynamic CT diffusion study compares the ability of Examples 1-10 and Reference compounds 1 and 4 to pass a semipermeable membrane (20 kDa). A 128-row clinical CT device (SOMATOM Definition, 128; Siemens Healthcare, Forchheim, Germany) was used to monitor the diffusion through a semipermeable membrane at 100 kV and 104 mA. Single measurements were performed at 0 min, 1 min, 2 min, 3 min, 5 min, 10 min, 15 min, 20 min, 30 min, 45 min, 60 min, 2 h, 3 h, 5 h, 7 h, 22 h, 24 h, 30 h after placing the dialysis cassette (Slide-A-Lyser, 20,000 MWCO, 0.1-0.5 mL Capacity, Thermo Scientific, Roskilde, Denmark) filled with contrast agent in fetal bovine serum solution (FBS, Sigma, F7524). The images were reconstructed with a slice thickness of 2.4 mm and a B30 convolution kernel. The used concentration in the dialysis cassettes of the investigated Examples 1-10 and Reference compounds 1 and 4 was 20 mmol Gd/L.
The imaging results for all investigated Examples and the Reference compounds 1 and 4 for the time points 0 min and 30 h after placing the cassettes in the FBS solution are depicted in FIG. 1. For image analysis, regions of interest were manually drawn on 1 centrally located slice for each time point (a representative measurement region is indicated in FIG. 1: Image RC1).

[4] = Water solubility (exploratory, 10 mM Tris-HCl, 20 °C); assay type: physicochemical; conditions: water (10 mM Tris-HCl buffer), pH 7.4
Procedure: The exploratory water solubilities of the compounds were determined at room temperature (20° C.) in 0.5 mL buffer solution (10 mM Tris-HCl) in the microcentrifuge tubes (Eppendorf, 2.0 mL safe-lock caps). The solid compounds were added stepwise to the buffer solution. The suspension was mixed using a shaker (Heidolph Reax 2000) and treated 5 min in an ultrasound bath (Bandelin, Sonorex Super RK255H).

[5] = Relaxivity measurements at 3.0 T (whole body MRI scanner, 37 °C) in water and human plasma; assay type: physicochemical; conditions: normalized to Gd, average ± standard deviation
Procedure: Relaxivity Measurements at 3.0 T
Relaxivity measurements at 3.0 T were performed with a whole body 3.0 T MRI Scanner (Philips Intera, Philips Healthcare, Hamburg, Germany) using a knee-coil (SENSE-Knee-8, Philips Healthcare, Hamburg, Germany). The sample tubes (CryoTubetm Vials, Thermo Scientific 1.8 mL, Roskilde, Denmark) were positioned in 3 rows of 4 and 5 tubes in a plastic holder in a box filled with water. The temperature was adjusted to 37° C. For the MRI sequence the shortest possible echo-time (TE) with 7.46 milliseconds was used. The inversion times were chosen to optimize the sequence to measure T1 values corresponding to the estimated T1 range of all relaxation times of contrast media containing solutions. The following inversion times (TIs) were applied: 50, 100, 150, 200, 300, 500, 700, 1000, 1400, 2100, 3200, and 4500 milliseconds. The sequence was run with a constant relaxation delay of 3.4 seconds after the registration of the last echo (variable TR in the range from 3450 to 7900 milliseconds). For details of the fit procedure, see Rohrer et. al. (Invest. Radiol. 2005; 40, 11: 715-724). The experimental matrix of the phantom measurement was 320×320.
The relaxivities were evaluated using three different concentrations of each compound (3 concentrations between 0.05 and 2 mM).
The T1 relaxation times of Example compounds were measured in water and human plasma. Human plasma preparation: For each experiment fresh blood was taken from a volunteer using 10 mL citrate-tubes (Sarstedt S-Monovette 02.1067.001, 10 mL, Citrate). The 10 mL citrate-tubes were carefully inverted 10 times to mix blood and anticoagulant and centrifuged for 15 minutes at 1811 g at room temperature (Eppendorf, Centrifuge 5810R).
The relaxivities ri (where i=1, 2) were calculated on the basis of the measured relaxation rates Ri in water and plasma: Ri=Ri(0)+ri[CGd], where Ri(0) represent the relaxation rate of the respective solvent and CGd the concentration of the compound normalized to the Gadolinium (Table 2).

[6] = 1.5 T, bovine plasma instead of human plasma, from Rohrer et al.
[7] = 3.0 T, plasma, reference compounds marked ^ (Rohrer et al., bovine plasma per Table 1 footnote)
[8] = 3.0 T, reference compounds marked ^ (Rohrer et al. per Table 1 footnote)

| Molecule | r1 human plasma [1, 6] [L/mmol/s] | r1 water ([1]; 1.5 T, from Rohrer et al.) [L/mmol/s] | r1 human plasma [1, 7] [L/mmol/s] | r1 water [1, 8] [L/mmol/s] | r1 human plasma [2] [L/mmol/s] | r1 water [2] [L/mmol/s] | Diffusion half-live (20 kDa) [3] | Solubility [4] [mg/100 mL] | r1 human plasma ([5]; human plasma) [L/mmol/s] | r1 water ([5]; water) [L/mmol/s] |
| --- | --- | --- | --- | --- | --- | --- | --- | --- | --- | --- |
| CNC[C@H](O)[C@@H](O)[C@H](O)[C@H](O)CO.CNC[C@H](O)[C@@H](O)[C@H](O)[C@H](O)CO.O=C([O-])CN(CCN(CC(=O)[O-])CC(=O)O)CCN(CC(=O)[O-])CC(=O)O.[Gd+3] [RC2, gadopentetate dimeglumine] | 4.1 | 3.3 | 3.7 ± 0.2 | 3.1 ± 0.3 |  |  |  |  |  |  |
| O=C([O-])CN1CCN(CC(=O)[O-])CCN(CC(=O)N(CC(=O)NCC(CNC(=O)CN(Cc2ccccc2)C(=O)CN2CCN(CC(=O)[O-])CCN(CC(=O)[O-])CCN(CC(=O)[O-])CC2)(CNC(=O)CN(Cc2ccccc2)C(=O)CN2CCN(CC(=O)[O-])CCN(CC(=O)[O-])CCN(CC(=O)[O-])CC2)CNC(=O)CN(Cc2ccccc2)C(=O)CN2CCN(CC(=O)[O-])CCN(CC(=O)[O-])CCN(CC(=O)[O-])CC2)Cc2ccccc2)CCN(CC(=O)[O-])CC1.[Gd+3].[Gd+3].[Gd+3].[Gd+3] [Example 10, Tetragadolinium [4,10-bis(carboxylatomethyl)-7-{3,13-dibenzyl-8,8-bis({[(benzyl{[4,7,10-tris(carboxylatomethyl)-1,4,7,10-tetraazacyclododecan-1-yl]acetyl}amino)-acetyl]amino}methyl)-2,5,11,14-tetraoxo-15-[4,7,10-tris(carboxylatomethyl)-1,4,7,10-tetraazacyclododecan-1-yl]-3,6,10,13-tetraazapentadec-1-yl}-1,4,7,10-tetraazacyclo-dodecan-1-yl]acetate] |  |  |  |  | 13.3 | 11.5 | 15.0 h | >1000 |  |  |
| CCOCCN(CC(=O)NCC(CNC(=O)CN(CCOCC)C(=O)CN1CCN(CC(=O)[O-])CCN(CC(=O)[O-])CCN(CC(=O)[O-])CC1)(CNC(=O)CN(CCOCC)C(=O)CN1CCN(CC(=O)[O-])CCN(CC(=O)[O-])CCN(CC(=O)[O-])CC1)CNC(=O)CN(CCOCC)C(=O)CN1CCN(CC(=O)[O-])CCN(CC(=O)[O-])CCN(CC(=O)[O-])CC1)C(=O)CN1CCN(CC(=O)[O-])CCN(CC(=O)[O-])CCN(CC(=O)[O-])CC1.[Gd+3].[Gd+3].[Gd+3].[Gd+3] [Example 4, Tetragadolinium {4,10-bis(carboxylatomethyl)-7-[16-(2-ethoxyethyl)-11,11-bis[({[(2-ethoxyethyl){[4,7,10-tris(carboxylatomethyl)-1,4,7,10-tetraazacyclododecan-1-yl]-acetyl}amino]acetyl}amino)methyl]-8,14,17-trioxo-6-{[4,7,10-tris(carboxylatomethyl)-1,4,7,10-tetraazacyclododecan-1-yl]acetyl}-3-oxa-6,9,13,16-tetraazaoctadecan-18-yl]-1,4,7,10-tetraazacyclododecan-1-yl}acetate] |  |  |  |  | 12.5 | 11.1 | 10.1 h | >1000 | 11.3 ± 0.01 | 10.1 ± 0.2 |
| CCOc1ccc(CC(CN(CCN(CC(=O)[O-])CC(=O)[O-])CC(=O)[O-])N(CC(=O)[O-])CC(=O)[O-])cc1.[Gd+3].[Na+].[Na+] (stereo not drawn) [RC3, gadoxetate disodium] | 6.9 | 4.7 | 6.2 ± 0.3 | 4.3 ± 0.3 |  |  |  |  |  |  |
| O=C([O-])CN1CCN(CC(=O)[O-])CCN(CC(=O)N(CC(=O)NCC(CNC(=O)CN(C(=O)CN2CCN(CC(=O)[O-])CCN(CC(=O)[O-])CCN(CC(=O)[O-])CC2)c2ccccc2)(CNC(=O)CN(C(=O)CN2CCN(CC(=O)[O-])CCN(CC(=O)[O-])CCN(CC(=O)[O-])CC2)c2ccccc2)CNC(=O)CN(C(=O)CN2CCN(CC(=O)[O-])CCN(CC(=O)[O-])CCN(CC(=O)[O-])CC2)c2ccccc2)c2ccccc2)CCN(CC(=O)[O-])CC1.[Gd+3].[Gd+3].[Gd+3].[Gd+3] [Example 9, Tetragadolinium [4,10-bis(carboxylatomethyl)-7-{2,5,11,14-tetraoxo-3,13-diphenyl-8,8-bis({[(phenyl{[4,7,10-tris(carboxylatomethyl)-1,4,7,10-tetraazacyclododecan-1-yl]-acetyl}amino)acetyl]amino}methyl)-15-[4,7,10-tris(carboxylatomethyl)-1,4,7,10-tetra-azacyclododecan-1-yl]-3,6,10,13-tetraazapentadec-1-yl}-1,4,7,10-tetraazacyclododecan-1-yl]acetate] |  |  |  |  | 12.0 | 11.0 | 15.1 h | >1000 |  |  |
| Gadomer-17 [RC4] | 16 | 17.3 | 13 ± 1 | 13.0 ± 0.7 |  |  | No diffusion |  |  |  |
